Source: ChEMBL document CHEMBL1777766, “Design, synthesis and in vitro antibacterial activity of 7-(4-alkoxyimino-3-aminomethylpiperidin-1-yl)fluoroquinolone derivatives” (Bioorg Med Chem Lett, 2011)
Values after ≈ are worked out from the molar mass of the structure shown.

What was measured:
Enterococcus faecalis [1] = experiment: Antibacterial activity against vancomycin-resistant Enterococcus faecalis EFL1004; assay type: functional
Proteus vulgaris = experiment: Antibacterial activity against Proteus vulgaris 56; assay type: functional
Pseudomonas aeruginosa = experiment: Antibacterial activity against Pseudomonas aeruginosa 17; assay type: functional
Streptococcus pneumoniae [2] = experiment: Antibacterial activity against Streptococcus pneumoniae ATCC 6301; assay type: functional
[3] = system: Staphylococcus epidermidis; experiment: Antibacterial activity against Staphylococcus epidermidis ATCC 12228; assay type: functional
Escherichia coli [4] = experiment: Antibacterial activity against Extended spectrum beta-lactamase producing Escherichia coli 08-5; assay type: functional
[5] = system: Staphylococcus epidermidis; experiment: Antibacterial activity against methicillin-sensitive Staphylococcus epidermidis 08-17; assay type: functional
Streptococcus pneumoniae [6] = experiment: Antibacterial activity against penicillin-resistant Streptococcus pneumoniae 08-2; assay type: functional
Staphylococcus aureus [7] = experiment: Antibacterial activity against methicillin-resistant Staphylococcus aureus 08-52; assay type: functional
Morganella morganii = experiment: Antibacterial activity against Morganella morganii 49086; assay type: functional
Escherichia coli [8] = experiment: Antibacterial activity against Escherichia coli ATCC 25922; assay type: functional
Streptococcus pyogenes = experiment: Antibacterial activity against Streptococcus pyogenes 556; assay type: functional
Klebsiella aerogenes = experiment: Antibacterial activity against Enterobacter aerogenes 45102; assay type: functional
Providencia rettgeri = experiment: Antibacterial activity against Proteus rettgeri 49006; assay type: functional
Klebsiella pneumoniae = experiment: Antibacterial activity against Klebsiella pneumoniae ATCC 700603; assay type: functional
Staphylococcus aureus [9] = experiment: Antibacterial activity against methicillin-sensitive Staphylococcus aureus 08-49; assay type: functional
Enterococcus faecalis [10] = experiment: Antibacterial activity against Enterococcus faecalis ATCC 51299; assay type: functional
[11] = system: Acinetobacter calcoaceticus; experiment: Antibacterial activity against Acinetobacter calcoaceticus 25001; assay type: functional
Serratia marcescens = experiment: Antibacterial activity against Serratia marcescens 41002; assay type: functional
[12] = system: Staphylococcus epidermidis; experiment: Antibacterial activity against methicillin-resistant Staphylococcus epidermidis 08-18; assay type: functional
Shigella sonnei = experiment: Antibacterial activity against Shigella sonnei 51592; assay type: functional
Salmonella typhi = experiment: Antibacterial activity against Bacillus typhi 50035; assay type: functional, Salmonella enterica subsp. enterica serovar Typhi; conditions: Salmonella enterica
Staphylococcus aureus [13] = experiment: Antibacterial activity against Staphylococcus aureus ATCC 13709; assay type: functional
Enterobacter cloacae = experiment: Antibacterial activity against Enterobacter cloacae 45301; assay type: functional
[14] = Cytotoxicity against african green monkey Vero cells after 24 hrs; assay type: cell-based; conditions: chlorocebus sabaeus

| SMILES | MIC (Enterococcus faecalis [1]) [µg/mL] | MIC (Proteus vulgaris) [µg/mL] | MIC (Pseudomonas aeruginosa) [µg/mL] | MIC (Streptococcus pneumoniae [2]) [µg/mL] | MIC [3] [µg/mL] | MIC (Escherichia coli [4]) [µg/mL] | MIC [5] [µg/mL] | MIC (Staphylococcus aureus [7]) [µg/mL] | MIC (Morganella morganii) [µg/mL] | MIC (Escherichia coli [8]) [µg/mL] | MIC (Streptococcus pyogenes) [µg/mL] | MIC (Klebsiella aerogenes) [µg/mL] | MIC (Providencia rettgeri) [µg/mL] | MIC (Staphylococcus aureus [9]) [µg/mL] | MIC (Enterococcus faecalis [10]) [µg/mL] | MIC [11] [µg/mL] | MIC (Serratia marcescens) [µg/mL] | MIC [12] [µg/mL] | MIC (Shigella sonnei) [µg/mL] | MIC (Salmonella typhi) [µg/mL] | other results |
| --- | --- | --- | --- | --- | --- | --- | --- | --- | --- | --- | --- | --- | --- | --- | --- | --- | --- | --- | --- | --- | --- |
| O=C(O)c1cn(C2CC2)c2cc(N3CCNCC3)c(F)cc2c1=O [CIPROFLOXACIN] | 1 (≈ 3.02 µM) | ≤ 0.03 | 16 (≈ 48.3 µM) | 1 (≈ 3.02 µM) | 0.25 (≈ 0.754 µM) | 128 (≈ 386 µM) | 2 (≈ 6.04 µM) | 4 (≈ 12.1 µM) | ≤ 0.03 | ≤ 0.03 | 1 (≈ 3.02 µM) | ≤ 0.03 | ≤ 0.03 | 0.25 (≈ 0.754 µM) | 0.5 (≈ 1.51 µM) | 1 (≈ 3.02 µM) | 0.25 (≈ 0.754 µM) | 0.25 (≈ 0.754 µM) | ≤ 0.03 | ≤ 0.03 | MIC (Streptococcus pneumoniae [6]): 1 µg/mL (≈ 3.02 µM); MIC (Klebsiella pneumoniae): 0.5 µg/mL (≈ 1.51 µM) |
| CO/N=C1\CN(c2nc3c(cc2F)c(=O)c(C(=O)O)cn3C2CC2)CC1CN (stereo not given) [GEMIFLOXACIN] | 0.5 (≈ 1.28 µM) | ≤ 0.03 | 32 (≈ 82.2 µM) | 0.5 (≈ 1.28 µM) | 0.06 (≈ 0.154 µM) | 32 (≈ 82.2 µM) | 0.06 (≈ 0.154 µM) | 0.5 (≈ 1.28 µM) | 0.06 (≈ 0.154 µM) | ≤ 0.03 | 0.125 (≈ 0.321 µM) | ≤ 0.03 | 0.06 (≈ 0.154 µM) | ≤ 0.03 | 0.06 (≈ 0.154 µM) | 0.125 (≈ 0.321 µM) | 0.125 (≈ 0.321 µM) | ≤ 0.03 | ≤ 0.03 | ≤ 0.03 | MIC (Staphylococcus aureus [13]): ≤ 0.03 µg/mL; MIC (Streptococcus pneumoniae [6]): ≤ 0.03 µg/mL; MIC (Enterobacter cloacae): ≤ 0.03 µg/mL; MIC (Klebsiella pneumoniae): 0.5 µg/mL (≈ 1.28 µM) |
| C[C@H]1COc2c(N3CCN(C)CC3)c(F)cc3c(=O)c(C(=O)O)cn1c23.C[C@H]1COc2c(N3CCN(C)CC3)c(F)cc3c(=O)c(C(=O)O)cn1c23.O [LEVOFLOXACIN] | 2 | ≤ 0.03 | 8 |  | 0.125 | 32 | 1 | 1 | ≤ 0.03 | ≤ 0.03 | 1 | ≤ 0.03 | 0.25 | 0.06 | 0.25 | 0.25 | 0.25 | 0.125 | ≤ 0.03 | ≤ 0.03 | MIC (Staphylococcus aureus [13]): 0.06 µg/mL; MIC (Enterobacter cloacae): 0.06 µg/mL |
| CCn1cc(C(=O)O)c(=O)c2cc(F)c(N3CC/C(=N\OC)C(CN)C3)c(F)c21 (racemic) | 32 (≈ 78.4 µM) | 8 (≈ 19.6 µM) | 32 (≈ 78.4 µM) | 32 (≈ 78.4 µM) | 8 (≈ 19.6 µM) | > 128 | 16 (≈ 39.2 µM) | 8 (≈ 19.6 µM) | 4 (≈ 9.79 µM) | 4 (≈ 9.79 µM) | 64 (≈ 157 µM) | 8 (≈ 19.6 µM) | 8 (≈ 19.6 µM) | 4 (≈ 9.79 µM) | 8 (≈ 19.6 µM) | 16 (≈ 39.2 µM) | 8 (≈ 19.6 µM) | 4 (≈ 9.79 µM) | 4 (≈ 9.79 µM) | 4 (≈ 9.79 µM) | MIC (Staphylococcus aureus [13]): 2 µg/mL (≈ 4.9 µM); MIC (Streptococcus pneumoniae [6]): 16 µg/mL (≈ 39.2 µM); MIC (Enterobacter cloacae): > 128 µg/mL; MIC (Klebsiella pneumoniae): 128 µg/mL (≈ 313 µM); CC50 at 24 h [14]: > 500 µg/mL |
| CO/N=C1\CCN(c2c(F)cc3c(=O)c(C(=O)O)cn(C4CC4)c3c2OC(F)F)CC1CN (racemic) | 4 (≈ 8.54 µM) | 4 (≈ 8.54 µM) | 8 (≈ 17.1 µM) | 4 (≈ 8.54 µM) | 0.5 (≈ 1.07 µM) | > 128 | 1 (≈ 2.13 µM) | 1 (≈ 2.13 µM) | 4 (≈ 8.54 µM) | 1 (≈ 2.13 µM) | 4 (≈ 8.54 µM) | 2 (≈ 4.27 µM) | 4 (≈ 8.54 µM) | 0.125 (≈ 0.267 µM) | 1 (≈ 2.13 µM) | 2 (≈ 4.27 µM) | 8 (≈ 17.1 µM) | 0.5 (≈ 1.07 µM) | 16 (≈ 34.2 µM) | 0.5 (≈ 1.07 µM) | MIC (Staphylococcus aureus [13]): 0.25 µg/mL (≈ 0.534 µM); MIC (Streptococcus pneumoniae [6]): 2 µg/mL (≈ 4.27 µM); MIC (Enterobacter cloacae): 2 µg/mL (≈ 4.27 µM); MIC (Klebsiella pneumoniae): 32 µg/mL (≈ 68.3 µM); CC50 at 24 h [14]: 335 µg/mL (≈ 715 µM) |
| CCO/N=C1\CCN(c2c(F)cc3c(=O)c(C(=O)O)cn(C4CC4)c3c2F)CC1CN (racemic) | 2 (≈ 4.6 µM) | 4 (≈ 9.21 µM) | 16 (≈ 36.8 µM) | 8 (≈ 18.4 µM) | 0.25 (≈ 0.575 µM) | > 128 | 2 (≈ 4.6 µM) | 1 (≈ 2.3 µM) | 4 (≈ 9.21 µM) | 1 (≈ 2.3 µM) | 32 (≈ 73.7 µM) | 2 (≈ 4.6 µM) | 8 (≈ 18.4 µM) | 0.25 (≈ 0.575 µM) | 2 (≈ 4.6 µM) | 2 (≈ 4.6 µM) | 4 (≈ 9.21 µM) | 0.25 (≈ 0.575 µM) | 0.5 (≈ 1.15 µM) | 0.5 (≈ 1.15 µM) | MIC (Staphylococcus aureus [13]): 0.5 µg/mL (≈ 1.15 µM); MIC (Streptococcus pneumoniae [6]): 4 µg/mL (≈ 9.21 µM); MIC (Enterobacter cloacae): > 128 µg/mL; MIC (Klebsiella pneumoniae): 32 µg/mL (≈ 73.7 µM); CC50 at 24 h [14]: 257 µg/mL (≈ 591 µM) |
| CO/N=C1\CCN(c2c(F)cc3c(=O)c(C(=O)O)cn(CCF)c3c2F)CC1CN (racemic) | 16 (≈ 37.5 µM) | 16 (≈ 37.5 µM) | 32 (≈ 75 µM) | 32 (≈ 75 µM) | 8 (≈ 18.8 µM) | > 128 | 32 (≈ 75 µM) | 8 (≈ 18.8 µM) | 16 (≈ 37.5 µM) | 8 (≈ 18.8 µM) | 32 (≈ 75 µM) | 32 (≈ 75 µM) | 16 (≈ 37.5 µM) | 2 (≈ 4.69 µM) | 8 (≈ 18.8 µM) | 128 (≈ 300 µM) | 16 (≈ 37.5 µM) | 8 (≈ 18.8 µM) | 32 (≈ 75 µM) | 8 (≈ 18.8 µM) | MIC (Staphylococcus aureus [13]): 4 µg/mL (≈ 9.38 µM); MIC (Streptococcus pneumoniae [6]): 16 µg/mL (≈ 37.5 µM); MIC (Enterobacter cloacae): > 128 µg/mL; MIC (Klebsiella pneumoniae): 128 µg/mL (≈ 300 µM) |
| CCO/N=C1\CCN(c2c(F)cc3c(=O)c(C(=O)O)cn(C4CC4)c3c2OC)CC1CN (racemic) | 8 (≈ 17.9 µM) | 32 (≈ 71.7 µM) | 32 (≈ 71.7 µM) | 8 (≈ 17.9 µM) | 2 (≈ 4.48 µM) | > 128 | 4 (≈ 8.96 µM) | 2 (≈ 4.48 µM) | 16 (≈ 35.8 µM) | 4 (≈ 8.96 µM) | 8 (≈ 17.9 µM) | 16 (≈ 35.8 µM) | 32 (≈ 71.7 µM) | 0.25 (≈ 0.56 µM) | 4 (≈ 8.96 µM) | 8 (≈ 17.9 µM) | 32 (≈ 71.7 µM) | 2 (≈ 4.48 µM) | 8 (≈ 17.9 µM) | 4 (≈ 8.96 µM) | MIC (Staphylococcus aureus [13]): 1 µg/mL (≈ 2.24 µM); MIC (Streptococcus pneumoniae [6]): 4 µg/mL (≈ 8.96 µM); MIC (Enterobacter cloacae): > 128 µg/mL; MIC (Klebsiella pneumoniae): 128 µg/mL (≈ 287 µM); CC50 at 24 h [14]: 173 µg/mL (≈ 388 µM) |
| CCO/N=C1\CCN(c2c(F)cc3c(=O)c(C(=O)O)cn(CCF)c3c2F)CC1CN (racemic) | 64 (≈ 145 µM) | 16 (≈ 36.3 µM) | 64 (≈ 145 µM) | 64 (≈ 145 µM) | 16 (≈ 36.3 µM) | > 128 | 64 (≈ 145 µM) | 16 (≈ 36.3 µM) | 8 (≈ 18.2 µM) | 8 (≈ 18.2 µM) | 64 (≈ 145 µM) | 16 (≈ 36.3 µM) | 32 (≈ 72.7 µM) | 8 (≈ 18.2 µM) | 16 (≈ 36.3 µM) | 128 (≈ 291 µM) | 16 (≈ 36.3 µM) | 8 (≈ 18.2 µM) | 8 (≈ 18.2 µM) | 8 (≈ 18.2 µM) | MIC (Staphylococcus aureus [13]): 8 µg/mL (≈ 18.2 µM); MIC (Streptococcus pneumoniae [6]): 32 µg/mL (≈ 72.7 µM); MIC (Enterobacter cloacae): 16 µg/mL (≈ 36.3 µM); MIC (Klebsiella pneumoniae): > 128 µg/mL; CC50 at 24 h [14]: > 500 µg/mL |
| CO/N=C1\CCN(c2c(F)cc3c(=O)c(C(=O)O)cn(C4CC4)c3c2F)CC1CN (racemic) | 4 (≈ 9.51 µM) | 4 (≈ 9.51 µM) | 8 (≈ 19 µM) | 8 (≈ 19 µM) | 1 (≈ 2.38 µM) | > 128 | 1 (≈ 2.38 µM) | 0.5 (≈ 1.19 µM) | 1 (≈ 2.38 µM) | 1 (≈ 2.38 µM) | 16 (≈ 38.1 µM) | 1 (≈ 2.38 µM) | 8 (≈ 19 µM) | 0.5 (≈ 1.19 µM) | 4 (≈ 9.51 µM) | 2 (≈ 4.76 µM) | 4 (≈ 9.51 µM) | 4 (≈ 9.51 µM) | 1 (≈ 2.38 µM) | 1 (≈ 2.38 µM) | MIC (Staphylococcus aureus [13]): 0.5 µg/mL (≈ 1.19 µM); MIC (Streptococcus pneumoniae [6]): 8 µg/mL (≈ 19 µM); MIC (Enterobacter cloacae): 32 µg/mL (≈ 76.1 µM); MIC (Klebsiella pneumoniae): 16 µg/mL (≈ 38.1 µM) |
